# Assay results from patent US20100298314A1, “NOVEL JNK INHIBITORS” (Schering Corporation, priority 2006, published 2010).
# Several values for one entry are separate records, joined by “and”; a condition that tells them apart may be missing. Equal values may be shown once. Read-outs that look alike come from different tables or passages of the source.
# Tests used:
# Assay type in all cases: biochemical
# [1] = biological target: JNK3 (Homo sapiens, UniProt P53779); assay: JNK3 kinase DELFIA (phosphorylation of biotinylated GST-ATF2); details: final ATP 2 uM
# Procedure: (§1) Before initiation of kinase reactions, compounds were pre-incubated with the enzyme for 10 minutes. Pre-incubation reactions contained 50 mM HEPES pH 7.3, 10 mM MgCl2, 1 mM DTT, 75 mM NaCl, 1 mM EDTA, 1 mM EGTA, 0.01% CHAPS, 2 nM JNK1, 6 ug/mL biotinylated GST-ATF2, 0.1 mg/ml BSA, 5% DMSO and 0-100 μM compound in a total volume of 40 μL. After a 10 minute room temperature pre-incubation, 10 μL of 35 μM ATP was added to start the reaction (final concentration of ATP=7 uM). Reactions were incubated at room temperature for 30 minutes. A small aliquot (10 uL) was taken and quenched by adding into 190 uL of DELFIA Assay buffer containing 100 mM EDTA. The amount of phosphate transferred to biotinylated GST-ATF2 was measured using the Dissociation Enhanced Lanthanide Fluorescence Immuno-assay (DELFIA) from Perkin Elmer according to manufacturers protocol. Briefly, biotinylated GST-ATF2 was captured on streptavidin coated plates for 1 hour, washed twice, then incubated for 1 hour with a 1:1000 dilution of rabbit-anti-phospho-ATF2 antibody and a 1:3500 dilution of Europium-labeled anti-rabbit secondary antibody. Free antibody was removed with six washes, Europium was dissociated from the antibody, and Europium fluorescence was measured using an excitation wavelength of 340 nm and an emission wavelength of 615 nm. JNK2 and JNK3 kinase reactions were carried out similarly, with the exception that the final concentration of ATP was 4 uM and 2 uM, respectively.
# [2] = biological target: JNK1 (Homo sapiens, UniProt P45983); assay: JNK1 kinase DELFIA (phosphorylation of biotinylated GST-ATF2)
# Procedure: as §1
# [3] = biological target: JNK2 (Homo sapiens, UniProt P45984); assay: JNK2 kinase DELFIA (phosphorylation of biotinylated GST-ATF2); details: final ATP 4 uM, reported as range for a group
# Procedure: as §1
# [4] = DELFIA, 2 nM JNK1, final ATP 7 uM, 10 min pre-incubation, reported as range for a group
# JNK3, sequence (P53779 whole entry, species assumed): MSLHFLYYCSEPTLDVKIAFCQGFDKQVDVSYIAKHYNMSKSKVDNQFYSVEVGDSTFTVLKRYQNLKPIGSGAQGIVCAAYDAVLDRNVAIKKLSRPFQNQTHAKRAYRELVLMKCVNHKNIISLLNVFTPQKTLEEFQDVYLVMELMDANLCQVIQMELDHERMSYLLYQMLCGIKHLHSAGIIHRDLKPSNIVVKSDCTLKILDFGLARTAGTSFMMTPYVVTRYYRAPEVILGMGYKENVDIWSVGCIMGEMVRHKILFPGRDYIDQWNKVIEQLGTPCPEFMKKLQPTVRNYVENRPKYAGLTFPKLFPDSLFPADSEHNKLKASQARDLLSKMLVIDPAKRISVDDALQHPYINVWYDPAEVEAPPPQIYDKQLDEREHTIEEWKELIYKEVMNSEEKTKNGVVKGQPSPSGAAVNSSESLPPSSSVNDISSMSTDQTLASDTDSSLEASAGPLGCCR
# JNK1, sequence (P45983 whole entry, species assumed): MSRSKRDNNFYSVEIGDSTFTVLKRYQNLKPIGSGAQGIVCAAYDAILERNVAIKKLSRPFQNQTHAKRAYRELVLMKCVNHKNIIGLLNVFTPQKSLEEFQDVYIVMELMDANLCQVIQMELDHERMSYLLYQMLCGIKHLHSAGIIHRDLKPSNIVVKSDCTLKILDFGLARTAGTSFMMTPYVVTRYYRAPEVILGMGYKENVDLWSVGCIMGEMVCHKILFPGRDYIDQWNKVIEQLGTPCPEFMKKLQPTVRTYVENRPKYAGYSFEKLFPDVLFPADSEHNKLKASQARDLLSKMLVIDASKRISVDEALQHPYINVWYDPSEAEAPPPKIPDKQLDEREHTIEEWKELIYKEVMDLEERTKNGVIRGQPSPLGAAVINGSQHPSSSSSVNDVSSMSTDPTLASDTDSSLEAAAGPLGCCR
# JNK2, sequence (P45984 whole entry, species assumed): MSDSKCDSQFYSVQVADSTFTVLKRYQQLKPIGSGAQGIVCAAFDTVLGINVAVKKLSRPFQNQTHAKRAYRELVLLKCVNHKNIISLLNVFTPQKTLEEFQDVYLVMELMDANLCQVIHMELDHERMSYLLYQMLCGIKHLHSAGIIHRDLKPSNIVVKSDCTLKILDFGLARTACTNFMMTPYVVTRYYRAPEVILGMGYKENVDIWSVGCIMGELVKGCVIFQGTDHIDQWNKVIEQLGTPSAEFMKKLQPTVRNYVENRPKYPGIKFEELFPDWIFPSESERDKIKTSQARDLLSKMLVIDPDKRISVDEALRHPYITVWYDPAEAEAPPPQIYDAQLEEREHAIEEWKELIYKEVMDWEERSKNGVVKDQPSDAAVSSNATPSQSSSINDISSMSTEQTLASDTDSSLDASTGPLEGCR
IC50 [1] [nM],"IC50 [2, 4]",IC50 ([2]; read-out: JNK 1 IC50) [nM],IC50 [3] [nM],SMILES
9 to 50,6 to 100 nM,21,4 to 46,Cc1cccc(-n2cc(CNC(=O)c3cccn4c(C(=O)N[C@H](CO)CC(C)C)cnc34)cn2)c1 [Compound 605]
9 to 50,6 to 100 nM and 6 to 20 nM,,4 to 46,CC(C)C[C@@H](CO)NC(=O)c1c(-c2ccsc2)nc2c(C(=O)NCc3ccc(-c4ccncc4)nc3)cccn12 [Compound 307]
9 to 50,6 to 100 nM and 6 to 20 nM,,4 to 46,CC(C)C[C@@H](CO)NC(=O)c1c(-c2ccsc2)nc2c(C(=O)NCc3ccc(-c4cccnc4)nc3)cccn12 [Compound 306]
9 to 50,6 to 20 nM,,4 to 46,CCc1nc2c(C(=O)NCc3ccc4nc(C)n(C)c4c3)cccn2c1C(=O)N[C@H](CO)CC(C)C [Compound 463]
118 to 174,6 to 100 nM,,107 to 173,Nc1nc2ccc(CNC(=O)c3cccn4c(C(=O)N[C@H]5CC[C@H](O)CC5)c(-c5ccsc5)nc34)cc2s1 [Compound 56]
54 to 98,6 to 100 nM,,52 to 94,CS(=O)(=O)c1ccc(CNC(=O)c2cccn3c(C(=O)N[C@H](CO)c4ccccc4)c(-c4ccsc4)nc23)cc1 [Compound 93]
9 to 50,6 to 100 nM,,4 to 46,Cc1nc2ccc(CNC(=O)c3cccn4c(C(=O)N[C@H](CO)CC(C)C)c(C)nc34)cc2[nH]1 [Compound 599]
54 to 98,,,107 to 173,C[C@@H](NC(=O)c1c(-c2ccsc2)nc2c(C(=O)NCc3ccc4nc(N)sc4c3)cccn12)[C@@H](O)c1ccccc1 [Compound 62]
9 to 50,6 to 100 nM and 6 to 20 nM,,4 to 46,CC(C)C[C@@H](CO)NC(=O)c1c(-c2ccsc2)nc2c(C(=O)NCc3ccc(N4CCOCC4)nc3)cccn12 [Compound 300]
54 to 98,6 to 100 nM,,52 to 94,CC(C)C[C@@H](CO)NC(=O)c1c(-c2ccc(F)cc2)nc2c(C(=O)NCc3ccc4nc(N)sc4c3)cccn12 [Compound 452]
9 to 50,6 to 20 nM,,4 to 46,CC(C)C[C@@H](CO)NC(=O)c1c(-c2ccsc2)nc2c(C(=O)NCc3ccc4nc(C(C)C)[nH]c4c3)cccn12 [Compound 114]
9 to 50,6 to 20 nM,,4 to 46,CC(C)C[C@@H](CO)NC(=O)c1c(-c2ccsc2)nc2c(C(=O)NCc3cnn(-c4ccccc4)c3)cccn12 [Compound 216]
54 to 98,,,201 to 666,CC(C)CNC(=O)c1c(-c2ccsc2)nc2c(C(=O)NCc3ccc4nc(N)sc4c3)cccn12 [Compound 38]
9 to 50,6 to 100 nM,,4 to 46,CC(C)C[C@@H](CO)NC(=O)c1c(-c2cccs2)nc2c(C(=O)NCc3ccc4nc(N)sc4c3)cccn12 [Compound 542]
118 to 174,,,201 to 666,CC[C@@H](CO)NC(=O)c1c(-c2ccsc2)nc2c(C(=O)NCc3ccc(Cl)nc3)cccn12 [Compound 181]
9 to 50,6 to 100 nM,,52 to 94,C[C@@H](CO)NC(=O)c1c(-c2ccsc2)nc2c(C(=O)NCc3ccc4nc(N)sc4c3)cccn12 [Compound 22]
16100,,,1070 to 11500,Cc1cc(C(=O)NCc2ccc3nc(N)sc3c2)c2nc(-c3ccsc3)c(C(=O)N[C@@H](CO)CC(C)C)n2c1 [Compound 350]
9 to 50,6 to 100 nM,,4 to 46,CC(C)C[C@@H](CO)NC(=O)c1c(-c2ccsc2)nc2c(C(=O)NCc3ccc(N4CCN(C)CC4)nc3)cccn12 [Compound 299]
54 to 98,6 to 100 nM,,4 to 46,CC(C)C[C@@H](CO)NC(=O)c1c(-c2ccsc2)nc2c(C(=O)NCc3ccc(N)nc3)cccn12 [Compound 327]
9 to 50,6 to 100 nM and 6 to 20 nM,19,4 to 46,Nc1nc2ccc(CNC(=O)c3cccn4c(C(=O)N[C@H](CO)c5ccccc5)c(-c5ccsc5)nc34)cc2s1 [Compound 16]
209 to 479,6 to 100 nM,,107 to 173,Nc1nc2ccc(CNC(=O)c3cccn4c(C(=O)NC[C@H]5CCCCC[C@H]5O)c(-c5ccsc5)nc34)cc2s1 [Compound 48]
9 to 50,6 to 100 nM and 6 to 20 nM and 6 to 10 nM,,4 to 46,Cc1nc2ccc(CNC(=O)c3cccn4c(C(=O)N[C@H](CO)CC(C)C)c(-c5ccccn5)nc34)cc2[nH]1 [Compound 479]
9 to 50,6 to 100 nM,,4 to 46,Cc1ccn(-c2ccc(CNC(=O)c3cccn4c(C(=O)N[C@H](CO)CC(C)C)c(-c5ccsc5)nc34)cn2)n1 [Compound 323]

IC50 [1] [nM],"IC50 [2, 4]",IC50 ([2]; read-out: JNK 1 IC50) [nM],IC50 [3] [nM],SMILES
9 to 50,,,4 to 46,CNc1nc2ccc(CNC(=O)c3cccn4c(C(=O)N[C@H](CO)CC(C)C)c(-c5ccsc5)nc34)cc2s1 [Compound 155]
9 to 50,6 to 100 nM and 6 to 20 nM and 6 to 10 nM,10,4 to 46,CC(C)C[C@@H](CO)NC(=O)c1c(-c2ccccn2)nc2c(C(=O)NCc3ccc4nc(N)sc4c3)cccn12 [Compound 478]
9 to 50,,,4 to 46,CC(C)C[C@@H](CO)NC(=O)c1c(-c2ccsc2)nc2c(C(=O)NCc3ccc4ncccc4c3)cccn12 [Compound 115]
118 to 174,,,1070 to 11500,CC[C@H](CO)NC(=O)c1c(-c2ccsc2)nc2c(C(=O)N[C@@H](C)c3ccc(S(C)(=O)=O)cc3)cccn12 [Compound 170]
9 to 50,6 to 100 nM and 6 to 20 nM,11,4 to 46,Cc1nc2ccc(CNC(=O)c3cccn4c(C(=O)N[C@H](CO)CC(C)C)c(-c5ccccn5)nc34)cc2n1C [Compound 483]
9 to 50,6 to 100 nM,,4 to 46,CC(C)C[C@@H](CO)NC(=O)c1c(-c2ccccc2)nc2c(C(=O)NCc3ccc4nc(N)sc4c3)cccn12 [Compound 451]
9 to 50,6 to 100 nM and 6 to 20 nM,,4 to 46,CC(C)C[C@@H](CO)NC(=O)c1c(-c2ccsc2)nc2c(C(=O)NCc3ccc4nc(N)sc4c3)cccn12 [Compound 14]
54 to 98,,,52 to 94,CC(C)C[C@H](CO)NC(=O)c1c(-c2ccsc2)nc2c(C(=O)NCc3ccc(S(C)(=O)=O)cc3)cccn12 [Compound 205]
54 to 98,6 to 100 nM,,107 to 173,CC(C)C[C@H](CO)NC(=O)c1c(-c2ccsc2)nc2c(C(=O)NCc3ccc(N4CCCC4)nc3)cccn12 [Compound 291]
9 to 50,6 to 20 nM,,4 to 46,Cc1cccc(-n2cc(CNC(=O)c3cccn4c(C(=O)N[C@H](CO)CC(C)C)c(-c5ccsc5)nc34)cn2)c1 [Compound 218]
54 to 98,,,201 to 666,CC[C@@H](CO)NC(=O)c1c(-c2ccsc2)nc2c(C(=O)NCc3ccc4nc(N)sc4c3)cccn12 [Compound 13]
118 to 174,,,107 to 173,Nc1nc2ccc(CNC(=O)c3cccn4c(C(=O)NCC5(O)CCCCC5)c(-c5ccsc5)nc34)cc2s1 [Compound 15]
9 to 50,6 to 100 nM,,4 to 46,CC(C)(C)[C@@H](CO)NC(=O)c1c(-c2ccsc2)nc2c(C(=O)NCc3ccc4nc(N)sc4c3)cccn12 [Compound 17]
209 to 479,,,201 to 666,CC(C)C[C@@H](CO)NC(=O)c1c(-c2ccsc2)nc2c(C(=O)NCC3CCN(C(=O)c4cccnc4)CC3)cccn12 [Compound 230]
54 to 98,,,52 to 94,CC(C)C[C@@H](CO)NC(=O)c1c(-c2ccsc2)nc2c(C(=O)NCc3ccc4ncsc4c3)cccn12 [Compound 113]
9 to 50,6 to 100 nM,,4 to 46,Cc1nc2ccc(CNC(=O)c3cccn4c(C(=O)N[C@H](CO)CC(C)C)c(-c5ccsc5)nc34)cc2s1 [Compound 130]
9 to 50,6 to 100 nM,,4 to 46,CC(C)C[C@@H](CO)NC(=O)c1c(-c2ccsc2)nc2c(C(=O)NCc3ccc(N4CCCCC4)nc3)cccn12 [Compound 301]
9 to 50,6 to 100 nM,,4 to 46,CCc1nc2c(C(=O)NCc3ccc4nc(N)sc4c3)cccn2c1C(=O)N[C@H](CO)CC(C)C [Compound 456]
9 to 50,6 to 20 nM and 6 to 10 nM,8,4 to 46,Cc1nc2cc(CNC(=O)c3cccn4c(C(=O)N[C@H](CO)CC(C)C)c(-c5ccsc5)nc34)ccc2[nH]1 [Compound 112]
9 to 50,6 to 20 nM,,4 to 46,Cc1ccc(-n2cc(CNC(=O)c3cccn4c(C(=O)N[C@H](CO)CC(C)C)c(-c5ccsc5)nc34)cn2)cc1 [Compound 219]
54 to 98,,,52 to 94,CC(C)C[C@@H](CO)NC(=O)c1c(-c2ccsc2)nc2c(C(=O)NCc3ccc(N4CCCC4=O)cc3)cccn12 [Compound 206]
118 to 174,,,107 to 173,C[C@H](CO)NC(=O)c1c(-c2ccsc2)nc2c(C(=O)NCc3ccc4nc(N)sc4c3)cccn12 [Compound 23]
